Test results: PubChem BioAssay (NCI)
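Dose response: 5 concentrations. Exposure: 48 h. Format: 96-well plates. Endpoint: linear interpolation; highest concentration if not reached. GI50 = concentration required for 50% inhibition of growth. TGI marks complete inhibition of growth.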

Legend:
Assay in all cases: growth of human tumour cells (NCI), 48 h
SK-MEL-5 melanoma = system: SK-MEL-5 melanoma
OVCAR-4 ovarian = system: OVCAR-4 ovarian
MDA-MB-231 breast = system: MDA-MB-231 breast
SF-295 CNS = system: SF-295 CNS
NCI-H226 lung = system: NCI-H226 lung
HCC-2998 colon = system: HCC-2998 colon
RXF 393 renal = system: RXF 393 renal
HOP-62 NSCLC = system: HOP-62 NSCLC
UO-31 renal = system: UO-31 renal
ACHN renal = system: ACHN renal
SK-MEL-28 melanoma = system: SK-MEL-28 melanoma
SNB-75 CNS = system: SNB-75 CNS
NCI-H522 lung = system: NCI-H522 lung
RPMI-8226 leukemia = system: RPMI-8226 leukemia
NCI-H23 lung = system: NCI-H23 lung
OVCAR-3 ovarian = system: OVCAR-3 ovarian
COLO 205 colon = system: COLO 205 colon
A498 renal = system: A498 renal
T-47D breast = system: T-47D breast
CAKI-1 renal = system: CAKI-1 renal
HCT-15 colon = system: HCT-15 colon
LOX IMVI melanoma = system: LOX IMVI melanoma
U251 CNS = system: U251 CNS
HL-60(TB) leukemia = system: HL-60(TB) leukemia
CCRF-CEM leukemia = system: CCRF-CEM leukemia
SW-620 colon = system: SW-620 colon
OVCAR-8 ovarian = system: OVCAR-8 ovarian
NCI-H460 lung = system: NCI-H460 lung
PC-3 prostate = system: PC-3 prostate
MCF7 breast = system: MCF7 breast
SN12C renal = system: SN12C renal
MOLT-4 leukemia = system: MOLT-4 leukemia
NCI/ADR-RES ovarian = system: NCI/ADR-RES ovarian
MDA-MB-468 breast = system: MDA-MB-468 breast
UACC-62 melanoma = system: UACC-62 melanoma
786-0 renal = system: 786-0 renal
MDA-MB-435 = system: MDA-MB-435
SK-OV-3 ovarian = system: SK-OV-3 ovarian
HT29 colon = system: HT29 colon
TK-10 renal = system: TK-10 renal
SNB-19 CNS = system: SNB-19 CNS
HCT-116 colon = system: HCT-116 colon
A549 NSCLC = system: A549 NSCLC
KM12 colon = system: KM12 colon
SF-268 CNS = system: SF-268 CNS
SK-MEL-2 melanoma = system: SK-MEL-2 melanoma
SF-539 CNS = system: SF-539 CNS
OVCAR-5 ovarian = system: OVCAR-5 ovarian
M14 melanoma = system: M14 melanoma
BT-549 breast = system: BT-549 breast
DU-145 prostate = system: DU-145 prostate
SR leukemia = system: SR leukemia
UACC-257 melanoma = system: UACC-257 melanoma
EKVX NSCLC = system: EKVX NSCLC
HS 578T breast = system: HS 578T breast
MALME-3M melanoma = system: MALME-3M melanoma
K-562 leukemia = system: K-562 leukemia
HOP-92 NSCLC = system: HOP-92 NSCLC
IGROV1 ovarian = system: IGROV1 ovarian

## COc1cncc(-c2ccc3ncnc(N4CCc5ccc(Cl)cc54)c3c2)c1
SK-MEL-5 melanoma
  GI50: 2.62 µM
  TGI: 12.4 µM
OVCAR-4 ovarian
  GI50: 2.69 µM
  TGI: 22.9 µM
MDA-MB-231 breast
  GI50: 3.43 µM
  TGI: 33.1 µM
SF-295 CNS
  GI50: 3.53 µM
  TGI: 29.6 µM
NCI-H226 lung
  GI50: 2.04 µM
  TGI: 18.3 µM
HCC-2998 colon
  GI50: 3.48 µM
  TGI: 19.8 µM
RXF 393 renal
  GI50: 1.28 µM
  TGI: 4.86 µM
HOP-62 NSCLC
  GI50: 2.19 µM
  TGI: 24.9 µM
UO-31 renal
  GI50: 0.718 µM
  TGI: 11.8 µM
ACHN renal
  GI50: 1.04 µM
  TGI: 15.5 µM
SK-MEL-28 melanoma
  GI50: 7.02 µM
  TGI: 21.9 µM
SNB-75 CNS
  GI50: 0.623 µM
  TGI: 5.25 µM
NCI-H522 lung
  GI50: 2.17 µM
  TGI: 12.1 µM
RPMI-8226 leukemia
  GI50: 2.97 µM
  TGI: > 100 µM
NCI-H23 lung
  GI50: 5.33 µM
  TGI: 29.6 µM
OVCAR-3 ovarian
  GI50: 2.41 µM
  TGI: 18.4 µM
COLO 205 colon
  GI50: 4.4 µM
  TGI: 23 µM
A498 renal
  GI50: 0.371 µM
  TGI: 4.02 µM
T-47D breast
  GI50: 1.23 µM
  TGI: 10 µM
CAKI-1 renal
  GI50: 0.885 µM
  TGI: 13.8 µM
HCT-15 colon
  GI50: 3.04 µM
  TGI: 19.9 µM
LOX IMVI melanoma
  GI50: 3.28 µM
  TGI: 20.5 µM
U251 CNS
  GI50: 4.24 µM
  TGI: 24 µM
HL-60(TB) leukemia
  TGI: 6.2 µM
CCRF-CEM leukemia
  GI50: 3.13 µM
  TGI: 54.1 µM
SW-620 colon
  GI50: 6.17 µM
  TGI: 26.9 µM
OVCAR-8 ovarian
  GI50: 3.98 µM
  TGI: 55.9 µM
NCI-H460 lung
  GI50: 3.65 µM
  TGI: 20.3 µM
PC-3 prostate
  GI50: 2.47 µM
  TGI: > 100 µM
MCF7 breast
  GI50: 1.74 µM
  TGI: 11.3 µM
SN12C renal
  GI50: 2.42 µM
  TGI: 21.3 µM
MOLT-4 leukemia
  GI50: 1.96 µM
  TGI: 6.96 µM
NCI/ADR-RES ovarian
  GI50: 2.16 µM
  TGI: 27.9 µM
MDA-MB-468 breast
  GI50: 0.231 µM
  TGI: 2.26 µM
UACC-62 melanoma
  GI50: 2.49 µM
  TGI: 16.3 µM
786-0 renal
  GI50: 1.61 µM
  TGI: 15.8 µM
MDA-MB-435
  GI50: 4.05 µM
  TGI: 22.3 µM
SK-OV-3 ovarian
  GI50: 2.81 µM
  TGI: 16.4 µM
HT29 colon
  GI50: 3.11 µM
  TGI: 20.5 µM
TK-10 renal
  GI50: 1.27 µM
  TGI: 9.58 µM
SNB-19 CNS
  GI50: 3.56 µM
  TGI: 27 µM
HCT-116 colon
  GI50: 2.97 µM
  TGI: 77.7 µM
A549 NSCLC
  GI50: 1.85 µM
  TGI: 18.4 µM
KM12 colon
  GI50: 2.58 µM
  TGI: 16.4 µM
SF-268 CNS
  GI50: 3.02 µM
  TGI: 26.9 µM
SK-MEL-2 melanoma
  GI50: 4.33 µM
  TGI: 19.7 µM
SF-539 CNS
  GI50: 3.41 µM
  TGI: 14.4 µM
OVCAR-5 ovarian
  GI50: 3.13 µM
  TGI: 23.7 µM
M14 melanoma
  GI50: 7.6 µM
  TGI: 37.4 µM
BT-549 breast
  GI50: 1.78 µM
  TGI: 8.41 µM
DU-145 prostate
  GI50: 1.98 µM
  TGI: 27 µM
SR leukemia
  GI50: 3.03 µM
  TGI: 25.4 µM
UACC-257 melanoma
  GI50: 9.01 µM
  TGI: 28.5 µM
EKVX NSCLC
  GI50: 1.22 µM
  TGI: 11.5 µM
HS 578T breast
  GI50: 1.48 µM
  TGI: 6.5 µM
MALME-3M melanoma
  GI50: 9.11 µM
  TGI: 24.2 µM
K-562 leukemia
  GI50: 4.56 µM
  TGI: > 100 µM
HOP-92 NSCLC
  GI50: 2.24 µM
  TGI: 17.8 µM

## O=C(c1ccc(O)cc1)C1[C@H](c2ccc(Br)cc2)[C@@H](c2ccccc2)NC12C(=O)Nc1ccccc12 (stereo partly specified)
SK-MEL-5 melanoma
  GI50: 6.6 µM
  TGI: 12.1 µM
OVCAR-4 ovarian
  GI50: 6.21 µM
  TGI: 12.9 µM
MDA-MB-231 breast
  GI50: 4.93 µM
  TGI: 9.87 µM
SF-295 CNS
  GI50: 5.93 µM
  TGI: 11.3 µM
NCI-H226 lung
  GI50: 5.31 µM
  TGI: 11 µM
IGROV1 ovarian
  GI50: 5.21 µM
  TGI: 10.4 µM
HCC-2998 colon
  GI50: 5.87 µM
  TGI: 11.4 µM
RXF 393 renal
  GI50: 5.29 µM
  TGI: 10.5 µM
HOP-62 NSCLC
  GI50: 5.88 µM
  TGI: 11.5 µM
UO-31 renal
  GI50: 3.99 µM
  TGI: 8.53 µM
ACHN renal
  GI50: 5.69 µM
  TGI: 10.8 µM
SK-MEL-28 melanoma
  GI50: 6.21 µM
  TGI: 11.5 µM
SNB-75 CNS
  GI50: 4.21 µM
  TGI: 11.7 µM
NCI-H522 lung
  GI50: 5.82 µM
  TGI: 11.7 µM
RPMI-8226 leukemia
  GI50: 7.97 µM
  TGI: 25.2 µM
NCI-H23 lung
  GI50: 6.38 µM
  TGI: 12.6 µM
OVCAR-3 ovarian
  GI50: 6.51 µM
  TGI: 12 µM
COLO 205 colon
  GI50: 6.88 µM
  TGI: 14.1 µM
A498 renal
  GI50: 5.83 µM
  TGI: 11.3 µM
T-47D breast
  GI50: 5.14 µM
  TGI: 12.2 µM
CAKI-1 renal
  GI50: 4.67 µM
  TGI: 9.8 µM
HCT-15 colon
  GI50: 6.17 µM
  TGI: 13 µM
LOX IMVI melanoma
  GI50: 4.93 µM
  TGI: 10.6 µM
U251 CNS
  GI50: 6.19 µM
  TGI: 11.6 µM
HL-60(TB) leukemia
  GI50: 7.46 µM
  TGI: 18.9 µM
CCRF-CEM leukemia
  GI50: 7.07 µM
  TGI: 16.1 µM
SW-620 colon
  GI50: 6.63 µM
  TGI: 12.9 µM
OVCAR-8 ovarian
  GI50: 6.28 µM
  TGI: 12.2 µM
NCI-H460 lung
  GI50: 6.08 µM
  TGI: 11.9 µM
PC-3 prostate
  GI50: 5.09 µM
  TGI: 12.3 µM
MCF7 breast
  GI50: 6.41 µM
  TGI: 15.4 µM
SN12C renal
  GI50: 5.69 µM
  TGI: 10.8 µM
MOLT-4 leukemia
  GI50: 3.99 µM
  TGI: 13.4 µM
MDA-MB-468 breast
  GI50: 6.1 µM
  TGI: 12.2 µM
UACC-62 melanoma
  GI50: 5.13 µM
  TGI: 10.1 µM
786-0 renal
  GI50: 5.83 µM
  TGI: 11.2 µM
MDA-MB-435
  GI50: 6.53 µM
  TGI: 12.3 µM
SK-OV-3 ovarian
  GI50: 6.67 µM
  TGI: 13.3 µM
HT29 colon
  GI50: 5.87 µM
  TGI: 12 µM
TK-10 renal
  GI50: 5.68 µM
  TGI: 11.3 µM
SNB-19 CNS
  GI50: 5.92 µM
  TGI: 11.1 µM
HCT-116 colon
  GI50: 5.51 µM
  TGI: 10.8 µM
A549 NSCLC
  GI50: 4.84 µM
  TGI: 10.2 µM
KM12 colon
  GI50: 6.31 µM
  TGI: 12.6 µM
SF-268 CNS
  GI50: 5.73 µM
  TGI: 12.5 µM
SK-MEL-2 melanoma
  GI50: 6.14 µM
  TGI: 11.5 µM
SF-539 CNS
  GI50: 6.41 µM
  TGI: 11.7 µM
OVCAR-5 ovarian
  GI50: 5.67 µM
  TGI: 10.8 µM
M14 melanoma
  GI50: 5.63 µM
  TGI: 11.3 µM
BT-549 breast
  GI50: 6.02 µM
  TGI: 11.4 µM
DU-145 prostate
  GI50: 6.85 µM
  TGI: 12.9 µM
SR leukemia
  GI50: 5.18 µM
  TGI: 12.6 µM
UACC-257 melanoma
  GI50: 6.1 µM
  TGI: 11.8 µM
EKVX NSCLC
  GI50: 5.92 µM
  TGI: 14 µM
HS 578T breast
  GI50: 6.63 µM
  TGI: 15.9 µM
MALME-3M melanoma
  GI50: 5.75 µM
  TGI: 10.9 µM
K-562 leukemia
  GI50: 8.24 µM
  TGI: 21.8 µM
HOP-92 NSCLC
  GI50: 5.36 µM
  TGI: 10.9 µM
